The record followed here is PubChem BioAssay (NCI).

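Values below derive from 48-hour exposures of cells grown in 96-well plates, with endpoints linearly interpolated between the two concentrations bracketing the appropriate inhibition level. GI50 is the concentration that inhibits growth by half. TGI denotes the concentration required for complete inhibition of growth.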 A value given as a limit tells only on which side of the number the result lay.

Among the test systems are 786-0 renal; IGROV1 ovarian; NCI-H522 lung; OVCAR-4 ovarian; SN12C renal; TK-10 renal; HOP-92 NSCLC; LOX IMVI melanoma.
Holding throughout (assay): growth of human tumour cells (NCI), 48 h

Regarding `COc1cc2c(cc1OCCCCCOc1cc3c(cc1OC)C(=O)N1CC(F)C[C@H]1C=N3)N=C[C@@H]1CC(F)CN1C2=O` (stereo not given in full), the GI50 in the assay on 786-0 renal is below 0.01 µM; in the assay on IGROV1 ovarian, 0.0599 µM; with NCI-H522 lung, 0.0372 µM; in the assay with OVCAR-4 ovarian, 1.29 µM; in the assay with SN12C renal it was below 0.0427 µM; with TK-10 renal it was 1.98 µM. For the same compound, the TGI stood at 0.16 µM in the assay with 786-0 renal; 0.204 µM in the assay with NCI-H522 lung; 24.1 µM in the assay with OVCAR-4 ovarian; 0.952 µM in the assay on SN12C renal; 6.32 µM in the assay with TK-10 renal.

On to `COc1cc2cc(C(=O)CCC(=O)O)sc2cc1OC`, for which the GI50 in the assay on 786-0 renal is above 100 µM; in the assay on HOP-92 NSCLC, 37.3 µM; in the assay on IGROV1 ovarian, above 100 µM; in the assay with LOX IMVI melanoma it was above 100 µM; in the assay with NCI-H522 lung, above 100 µM; in the assay with OVCAR-4 ovarian, above 100 µM. Besides, the GI50 in the assay with SN12C renal and with TK-10 renal was above 100 µM in each case. Also, the TGI with 786-0 renal, with HOP-92 NSCLC, with IGROV1 ovarian, in the assay with LOX IMVI melanoma, in the assay with NCI-H522 lung and with OVCAR-4 ovarian was above 100 µM in each case. Also, the TGI in the assay with SN12C renal and in the assay on TK-10 renal was above 100 µM in each case.

As for `Cn1cc(C2=C(c3cn(CCO)c4ccccc34)C(=O)NC2=O)c2ccccc21`, the GI50 was 5.01 µM in the assay on 786-0 renal; 4.93 µM with IGROV1 ovarian; 2.77 µM in the assay with LOX IMVI melanoma; 1.64 µM with NCI-H522 lung; 7.83 µM with OVCAR-4 ovarian; 4.75 µM in the assay with SN12C renal. The GI50 with TK-10 renal was 4.58 µM. Besides, the TGI in the assay on 786-0 renal is above 25 µM; in the assay with IGROV1 ovarian, 14.9 µM; in the assay with LOX IMVI melanoma, above 25 µM; in the assay on NCI-H522 lung it was 10.8 µM; in the assay on OVCAR-4 ovarian, above 25 µM; in the assay with SN12C renal it was above 25 µM. For the same compound, the TGI with TK-10 renal worked out at 15.5 µM.

On to `COc1cc(-c2nc3sccn3c2-c2ccnc(NCCNS(=O)(=O)c3ccc(Cl)cc3)n2)ccc1F`, for which the GI50 in the assay with 786-0 renal was 7.77 µM; in the assay with IGROV1 ovarian it was 3 µM; with LOX IMVI melanoma, 3.39 µM; with NCI-H522 lung, 2.59 µM; in the assay on OVCAR-4 ovarian, 3.72 µM; in the assay with SN12C renal, 4.11 µM. In addition, the GI50 in the assay on TK-10 renal was 9.44 µM. For the same compound, the TGI in the assay on 786-0 renal, with IGROV1 ovarian, with LOX IMVI melanoma, in the assay with NCI-H522 lung, with OVCAR-4 ovarian and in the assay on SN12C renal was above 100 µM each time. This compound came in with a TGI in the assay on TK-10 renal above 100 µM.

Regarding `O=C(Nc1ccc(F)cc1)Nc1ccccc1CNc1nc(Nc2ccc(OCCN3CCCC3)cc2)ncc1Cl`, the GI50 is 0.92 µM in the assay on 786-0 renal; 0.849 µM with HOP-92 NSCLC; 5.27 µM in the assay on IGROV1 ovarian; 0.914 µM in the assay with LOX IMVI melanoma; 2.26 µM with NCI-H522 lung; 1.11 µM in the assay with OVCAR-4 ovarian. For the same compound, the GI50 with SN12C renal was 0.984 µM; with TK-10 renal it was 1.77 µM. For the same compound, the TGI was determined as 1.77 µM with 786-0 renal; 2.49 µM in the assay on HOP-92 NSCLC; 13.3 µM in the assay with IGROV1 ovarian; 1.69 µM in the assay with LOX IMVI melanoma; 13.4 µM in the assay on NCI-H522 lung; 2.93 µM in the assay with OVCAR-4 ovarian. In addition, the results for the TGI in the assay with SN12C renal and in the assay on TK-10 renal were 2.01 µM and 6.8 µM, respectively.

In the case of `O=[N+]([O-])c1ccccc1N=Nc1c(O)[nH]c2ccc(Br)cc12`, the TGI with 786-0 renal was 40.4 µM; in the assay with IGROV1 ovarian it was 20.1 µM; in the assay on LOX IMVI melanoma, above 61 µM; in the assay on NCI-H522 lung, above 34.8 µM; in the assay on OVCAR-4 ovarian, above 59 µM; in the assay with SN12C renal, 44.8 µM. For the same compound, the TGI with TK-10 renal came out at 30.8 µM.

Turning to `CC(C)c1c(C(=O)Nc2ccccc2)c(-c2ccccc2)c(-c2ccc(F)cc2)n1CC[C@@H]1CC=CC(=O)O1`, the GI50 in the assay on 786-0 renal was 1.68 µM; with HOP-92 NSCLC, 0.419 µM; in the assay with IGROV1 ovarian, 2.3 µM; in the assay with LOX IMVI melanoma, 1.63 µM; in the assay on NCI-H522 lung, 1.5 µM; in the assay with SN12C renal, 1.01 µM. For the same compound, the GI50 in the assay on TK-10 renal is 2.18 µM. Moreover, the TGI with 786-0 renal was found to be 3.56 µM; in the assay on HOP-92 NSCLC it was 2.28 µM; in the assay with IGROV1 ovarian it was 5.41 µM; with LOX IMVI melanoma, 3.06 µM; in the assay with NCI-H522 lung it was 2.98 µM; in the assay on SN12C renal it was 3.82 µM. This compound also had a TGI in the assay with TK-10 renal of 4.67 µM.

For the compound `C=C(C)C1Cc2c(cc(OC)c3c(=O)c4cccc(O)c4oc23)O1` (stereo not given), the TGI in the assay with 786-0 renal was determined as 32.9 µM; with IGROV1 ovarian, 33.1 µM; in the assay with LOX IMVI melanoma it was 29.6 µM; in the assay with NCI-H522 lung, 33.8 µM; with OVCAR-4 ovarian, 42.4 µM; in the assay with SN12C renal, 76.7 µM. Also, the TGI in the assay with TK-10 renal turned out to be 46.9 µM.

Take `CCN1/C(=C/C=C/c2n(-c3ccccc3)c3ccc(-c4nc5ccccc5s4)cc3[n+]2CC)N(c2ccccc2)c2ccc(-c3nc4ccccc4s3)cc21`: the GI50 in the assay with 786-0 renal was 0.602 µM; in the assay on IGROV1 ovarian it was 0.75 µM; in the assay on LOX IMVI melanoma, 1.22 µM; in the assay on NCI-H522 lung, 0.585 µM; with OVCAR-4 ovarian, 0.765 µM; in the assay with SN12C renal, 0.175 µM. Moreover, the GI50 with TK-10 renal was 1.94 µM. Also, the TGI is above 50 µM in the assay on 786-0 renal; above 50 µM in the assay on IGROV1 ovarian; above 50 µM in the assay on LOX IMVI melanoma; 3.41 µM in the assay on NCI-H522 lung; above 50 µM in the assay with OVCAR-4 ovarian; 2.44 µM in the assay on SN12C renal. For the same compound, the TGI in the assay on TK-10 renal was above 50 µM.

On to `CCOC(=O)/C(=N\OC)C(O)C(F)(F)F` (stereo not given), for which the TGI in the assay with 786-0 renal, in the assay on IGROV1 ovarian, in the assay on LOX IMVI melanoma, in the assay on NCI-H522 lung, with SN12C renal and in the assay on TK-10 renal was above 100 µM in each case.

Take `c1ccc2c(c1)sc1c3cnccc3ccc21`: the TGI in the assay on 786-0 renal, with IGROV1 ovarian, with LOX IMVI melanoma, in the assay on NCI-H522 lung, with OVCAR-4 ovarian and in the assay on SN12C renal was above 100 µM throughout. In the assay with TK-10 renal, this compound showed a TGI above 100 µM.

Take `COC(=O)C1=C(C)NC(C)=C(C(=O)OC)C1/C=C(\Cl)c1ccc(Cl)c(Cl)c1`: the GI50 with 786-0 renal is 17 µM; with IGROV1 ovarian it was 15.5 µM; in the assay with LOX IMVI melanoma, 11.4 µM; in the assay with NCI-H522 lung, 16.6 µM; in the assay with OVCAR-4 ovarian, 10.8 µM; in the assay with SN12C renal, 14 µM. The GI50 in the assay with TK-10 renal is 14.8 µM. For the same compound, the TGI in the assay with 786-0 renal is 30.8 µM; in the assay with IGROV1 ovarian, 28.9 µM; in the assay on LOX IMVI melanoma, 23.5 µM; with NCI-H522 lung, 32.4 µM; in the assay on OVCAR-4 ovarian it was 26.6 µM; in the assay on SN12C renal it was 27.5 µM. Moreover, in the assay with TK-10 renal, the TGI came to 30.3 µM.
